Experimental data published in US11071300B2, “Pesticidally active pyrazole derivatives” (SYNGENTA PARTICIPATIONS AG, priority 2017, dated 2021).

Legend:
Format in all cases: in vivo
[1] = tested on: Myzus persicae; assay: Myzus persicae (green peach aphid) leaf disc test; conditions: foliar, 144 h, application rate 200 ppm, sunflower leaf discs sprayed, mixed ages, 6 DAT, read-out: control (mortality)
Experimental: Myzus persicae (Green Peach Aphid):
Sunflower leaf discs were placed on agar in a 24-well microtiter plate and sprayed with test solutions at an application rate of 200 ppm. After drying, the leaf discs were infested with an aphid population of mixed ages. After an incubation period of 6 DAT, samples were checked for mortality.

[2] = tested on: Thrips tabaci; assay: Thrips tabaci (onion thrips) leaf disc test; conditions: foliar, 144 h, application rate 200 ppm, sunflower leaf discs sprayed, mixed ages, 6 days after infestation, read-out: control (mortality)
Experimental: Thrips tabaci (Onion Thrips):
(§1) Sunflower leaf discs were placed on agar in 24-well microtiter plates and sprayed with aqueous test solutions prepared from 10′000 ppm DMSO stock solutions. After drying the leaf discs were infested with a thrips population of mixed ages. The samples were assessed for mortality 6 days after infestation.

[3] = tested on: Plutella xylostella; assay: Plutella xylostella (diamond back moth) artificial diet test; conditions: 120 h, application rate 200 ppm, artificial diet, L2 larvae, 5 days after infestation, read-out: control (mortality and growth inhibition)
Experimental: Plutella xylostella (Diamond Back Moth):
(§2) 24-well microtiter plates with artificial diet were treated with aqueous test solutions prepared from 10′000 ppm DMSO stock solutions by pipetting. After drying, the plates were infested with L2 larvae (10 to 15 per well). The samples were assessed for mortality and growth inhibition in comparison to untreated samples 5 days after infestation.

[4] = tested on: Diabrotica Balteata; assay: Diabrotica balteata (corn root worm) maize sprout test; conditions: 96 h, application rate 200 ppm, maize sprouts sprayed, L2 larvae, 4 days after infestation, read-out: control (mortality and growth inhibition)
Experimental: Diabrotica Balteata, (Corn Root Worm)
as §2, with “Maize sprouts, placed on an agar layer in 24-well” for “24-well”, “plates” for “plates with artificial diet”, “spraying.” for “pipetting.”, “(6” for “(10”, “10” for “15”, “4” for “5”

[5] = tested on: Euschistus heros; assay: Euschistus heros (neotropical brown stink bug) soybean leaf test; conditions: 120 h, application rate 200 ppm, soybean leaves sprayed, N2 nymphs, 5 days after infestation, read-out: control (mortality and growth inhibition)
Experimental: Euschistus heros (Neotropical Brown Stink Bug):
Soybean leaves on agar in 24-well microtiter plates were sprayed with aqueous test solutions prepared from 10′000 ppm DMSO stock solutions. After drying the leaves were infested with N2 nymphs. The samples were assessed for mortality and growth inhibition in comparison to untreated samples 5 days after infestation.

[6] = tested on: Spodoptera littoralis; assay: Spodoptera littoralis (Egyptian cotton leaf worm) leaf disc test; conditions: foliar, 72 h, application rate 200 ppm, cotton leaf discs sprayed, L1 larvae, 3 days after infestation, read-out: control (at least one of mortality, anti-feedant effect, growth inhibition)
Procedure, shortened: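 Cotton leaf discs on agar were sprayed with aqueous dilutions of 10′000 ppm DMSO stocks, dried and infested with five L1 larvae. Mortality, anti-feedant effect and growth inhibition were scored against untreated samples 3 days after infestation. Control = any of these higher than untreated.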

[7] = tested on: Tetranychus urticae; assay: Tetranychus urticae (two-spotted spider mite) leaf disc test; conditions: foliar, 192 h, application rate 200 ppm, bean leaf discs sprayed, 8 days after infestation, read-out: control (mortality on mixed population, mobile stages)
Experimental: Tetranychus urticae (Two-Spotted Spider Mite):
as §1, with “Bean” for “Sunflower”, “discs” for “discs were placed”, “were” for “and”, “mite” for “thrips”, “on mixed population (mobile stages) 8” for “6”

CCC(=O)N(C(=O)c1cc(-c2cnn(-c3c(C(F)(F)F)c(OS(=O)(=O)C(F)(C(F)(F)F)C(F)(F)F)nn3C)c2)ccc1Cl)C1(C#N)CC1 [Compound 54, [5-[4-[4-chloro-3-[(1-cyanocyclopropyl)-propanoyl-carbamoyl]phenyl]pyrazol-1-yl]-1-methyl-4-(trifluoromethyl)pyrazol-3-yl] 1,1,1,2,3,3,3-heptafluoropropane-2-sulfonate]
≥ 80%: mortality at 200 ppm [1] | mortality at 200 ppm [2] | mortality at 200 ppm [3] | mortality at 200 ppm [4] | mortality at 200 ppm [5] | percent control (mortality, anti-feedant effect or growth inhibition) at 200 ppm [6] | mortality at 200 ppm [7]

COCN(C(=O)c1cc(-c2cnn(-c3c(C(F)(F)F)c(OS(=O)(=O)C(F)(C(F)(F)F)C(F)(F)F)nn3C)c2)ccc1Cl)C1(C#N)CC1 [Compound 48, [5-[4-[4-chloro-3-[(1-cyanocyclopropyl)-(methoxymethyl)carbamoyl]phenyl]pyrazol-1-yl]-1-methyl-4-(trifluoromethyl)pyrazol-3-yl] 1,1,1,2,3,3,3-heptafluoropropane-2-sulfonate]
≥ 80%: mortality at 200 ppm [1] | mortality at 200 ppm [2] | mortality at 200 ppm [3] | mortality at 200 ppm [4] | mortality at 200 ppm [5] | percent control (mortality, anti-feedant effect or growth inhibition) at 200 ppm [6] | mortality at 200 ppm [7]

Cn1nc(OS(=O)(=O)C(F)(C(F)(F)F)C(F)(F)F)c(C(F)(F)F)c1-n1cc(-c2ccc(Cl)c(C(=O)N(C(=O)C(C)(C)C)C3(C#N)CC3)c2)cn1 [Compound 59, [5-[4-[4-chloro-3-[(1-cyanocyclopropyl)-(2,2-dimethylpropanoyl)carbamoyl]phenyl]pyrazol-1-yl]-1-methyl-4-(trifluoromethyl)pyrazol-3-yl] 1,1,1,2,3,3,3-heptafluoropropane-2-sulfonate]
≥ 80%: mortality at 200 ppm [1] | mortality at 200 ppm [2] | mortality at 200 ppm [3] | mortality at 200 ppm [4] | mortality at 200 ppm [5] | percent control (mortality, anti-feedant effect or growth inhibition) at 200 ppm [6] | mortality at 200 ppm [7]

CCN(C(=O)c1cc(-c2cnn(-c3c(C(F)(F)F)c(OS(=O)(=O)C(F)(C(F)(F)F)C(F)(F)F)nn3C)c2)ccc1Cl)C1CC1 [Compound 12, [5-[4-[4-chloro-3-[cyclopropyl(ethyl)carbamoyl]phenyl]pyrazol-1-yl]-1-methyl-4-(trifluoromethyl)pyrazol-3-yl] 1,1,1,2,3,3,3-heptafluoropropane-2-sulfonate]
≥ 80%: mortality at 200 ppm [1] | mortality at 200 ppm [2] | mortality at 200 ppm [3] | mortality at 200 ppm [4] | mortality at 200 ppm [5] | percent control (mortality, anti-feedant effect or growth inhibition) at 200 ppm [6] | mortality at 200 ppm [7]

CN(C(=O)c1cc(-c2cc(-c3c(C(F)(F)F)c(OS(=O)(=O)C(F)(C(F)(F)F)C(F)(F)F)nn3C)no2)ccc1Cl)C1CC1 [Compound 34, [5-[5-[4-chloro-3-[cyclopropyl(methyl)carbamoyl]phenyl]isoxazol-3-yl]-1-methyl-4-(trifluoromethyl)pyrazol-3-yl] 1,1,1,2,3,3,3-heptafluoropropane-2-sulfonate]
≥ 80%: mortality at 200 ppm [1] | mortality at 200 ppm [2] | mortality at 200 ppm [3] | mortality at 200 ppm [4] | mortality at 200 ppm [5] | percent control (mortality, anti-feedant effect or growth inhibition) at 200 ppm [6] | mortality at 200 ppm [7]

CN(C(=O)c1cc(-c2cc(-c3c(C(F)(F)F)c(OS(=O)(=O)C(F)(C(F)(F)F)C(F)(F)F)nn3C)no2)ccc1Cl)C1(C#N)CC1 [Compound 37, [5-[5-[4-chloro-3-[(1-cyanocyclopropyl)-methyl-carbamoyl]phenyl]isoxazol-3-yl]-1-methyl-4-(trifluoromethyl)pyrazol-3-yl] 1,1,1,2,3,3,3-heptafluoropropane-2-sulfonate]
≥ 80%: mortality at 200 ppm [1] | mortality at 200 ppm [2] | mortality at 200 ppm [3] | mortality at 200 ppm [4] | mortality at 200 ppm [5] | percent control (mortality, anti-feedant effect or growth inhibition) at 200 ppm [6] | mortality at 200 ppm [7]

Cn1nc(OS(=O)(=O)C(F)(C(F)(F)F)C(F)(F)F)c(C(F)(F)F)c1-n1cc(-c2ccc(Cl)c(C(=O)N(CC#N)C3(C#N)CC3)c2)cn1 [Compound 49, [5-[4-[4-chloro-3-[(1-cyanocyclopropyl)-(cyanomethyl)carbamoyl]phenyl]pyrazol-1-yl]-1-methyl-4-(trifluoromethyl)pyrazol-3-yl] 1,1,1,2,3,3,3-heptafluoropropane-2-sulfonate]
≥ 80%: mortality at 200 ppm [1] | mortality at 200 ppm [2] | mortality at 200 ppm [3] | mortality at 200 ppm [4] | mortality at 200 ppm [5] | percent control (mortality, anti-feedant effect or growth inhibition) at 200 ppm [6] | mortality at 200 ppm [7]

Cn1nc(OS(=O)(=O)C(F)(C(F)(F)F)C(F)(F)F)c(C(F)(F)F)c1-c1cc(-c2ccc(Cl)c(C(=O)NC3CC3)c2)on1 [Compound 33, [5-[5-[4-chloro-3-(cyclopropylcarbamoyl)phenyl]isoxazol-3-yl]-1-methyl-4-(trifluoromethyl)pyrazol-3-yl] 1,1,1,2,3,3,3-heptafluoropropane-2-sulfonate]
≥ 80%: mortality at 200 ppm [1] | mortality at 200 ppm [2] | mortality at 200 ppm [3] | mortality at 200 ppm [4] | mortality at 200 ppm [5] | percent control (mortality, anti-feedant effect or growth inhibition) at 200 ppm [6] | mortality at 200 ppm [7]

CN(C(=O)c1cc(-c2cnn(-c3c(C(F)(F)F)c(OS(=O)(=O)C(F)(C(F)(F)F)C(F)(F)F)nn3C)c2)cnc1Cl)C1(C#N)CC1 [Compound 25, [5-[4-[6-chloro-5-[(1-cyanocyclopropyl)-methyl-carbamoyl]-3-pyridyl]pyrazol-1-yl]-1-methyl-4-(trifluoromethyl)pyrazol-3-yl] 1,1,1,2,3,3,3-heptafluoropropane-2-sulfonate]
≥ 80%: mortality at 200 ppm [1] | mortality at 200 ppm [2] | mortality at 200 ppm [3] | mortality at 200 ppm [4] | mortality at 200 ppm [5] | percent control (mortality, anti-feedant effect or growth inhibition) at 200 ppm [6] | mortality at 200 ppm [7]

Cn1nc(OS(=O)(=O)C(F)(C(F)(F)F)C(F)(F)F)c(C(F)(F)F)c1-n1cc(-c2ccc(Cl)c(C(=O)N(C=O)C3(C#N)CC3)c2)cn1 [Compound 57, [5-[4-[4-chloro-3-[(1-cyanocyclopropyl)-formyl-carbamoyl]phenyl]pyrazol-1-yl]-1-methyl-4-(trifluoromethyl)pyrazol-3-yl] 1,1,1,2,3,3,3-heptafluoropropane-2-sulfonate]
≥ 80%: mortality at 200 ppm [1] | mortality at 200 ppm [2] | mortality at 200 ppm [3] | mortality at 200 ppm [4] | mortality at 200 ppm [5] | percent control (mortality, anti-feedant effect or growth inhibition) at 200 ppm [6] | mortality at 200 ppm [7]

Cn1nc(OS(=O)(=O)C(F)(C(F)(F)F)C(F)(F)F)c(C(F)(F)F)c1-c1cc(-c2ccc(Cl)c(C(=O)NC3(C#N)CC3)c2)on1 [Compound 36, [5-[5-[4-chloro-3-[(1-cyanocyclopropyl)carbamoyl]phenyl]isoxazol-3-yl]-1-methyl-4-(trifluoromethyl)pyrazol-3-yl] 1,1,1,2,3,3,3-heptafluoropropane-2-sulfonate]
≥ 80%: mortality at 200 ppm [1] | mortality at 200 ppm [2] | mortality at 200 ppm [3] | mortality at 200 ppm [4] | mortality at 200 ppm [5] | percent control (mortality, anti-feedant effect or growth inhibition) at 200 ppm [6] | mortality at 200 ppm [7]

Cn1nc(OS(=O)(=O)C(F)(C(F)(F)F)C(F)(F)F)c(C(F)(F)F)c1-n1cc(-c2ccc(Cl)c(C(=O)N[C@H]3C[C@@H]3C#N)c2)cn1 (racemic) [Compound 69, (rac)-[5-[4-[4-chloro-3-[[(1S,2S)-2-cyanocyclopropyl]carbamoyl]phenyl]pyrazol-1-yl]-1-methyl-4-(trifluoromethyl)pyrazol-3-yl] 1,1,1,2,3,3,3-heptafluoropropane-2-sulfonate]
≥ 80%: mortality at 200 ppm [1] | mortality at 200 ppm [3] | mortality at 200 ppm [5] | percent control (mortality, anti-feedant effect or growth inhibition) at 200 ppm [6] | mortality at 200 ppm [7]
